According to patent US20090298824A1, “Organic compounds” (priority 2004, published 2009):

Test system: neutrophils
Assay: Neutrophil chemotaxis assay
Format: cell-based
Conditions: 1.5 h; inhibition of neutrophil chemotaxis; chemoattractants 0.1-5 nM; 90 minutes migration at 37° C.; read-out: IC50 values in the above assay
Description: The in vitro inhibitory properties of these compounds are determined in the neutrophil chemotaxis assay. Assays were performed in a 96-well plate format according to previously published method (Frevert C W, et al., J Immunolog. Methods, 1998, 213, 41). 96-well chemotaxis chambers 5 μm were obtained from Neuro Probe, all cell buffers were obtained from Invitrogen Paisley, UK, dextran-T500 and Ficoll-Paque Plus™ density gradient centrifugation media were purchased from Pharmacia Biotech Buckinghamshire, UK. Calcein-AM dye was obtained from Molecular Probes. Neutrophils were isolated as previously described (Haslett, C., et al. Am J Path., 1985, 119:101). Citrated whole blood was mixed with 4% (w/v) dextran-T500 and allowed to stand on ice for 30 minutes to remove erythrocytes. Granulocytes (PMN) were separated from peripheral blood mononuclear cells by layering 15 ml of cell suspension onto 15 ml Ficoll-Paque PLUS density gradient and centrifuged at 250×g for 25 minutes. […] The labelled cells were washed with RPMI without phenol red+0.1% bovine serum albumin, prior to use the cells were counted and adjusted to a final concentration of 5×10^6 cells/ml. […] At the end of the incubation period, migrated cells were quantified using a multi-well fluorescent plate reader (Fluoroskan II™, Labsystems) at 485 nm excitation and 538 nm emission. […]

N#Cc1cc(O)c2[nH]c(Nc3cccc(Cl)c3Cl)nc2c1 [Example 2, 2-(2,3-Dichloro-phenylamino)-7-hydroxy-1H-benzoimidazole-5-carbonitrile]
IC50: 322 nM
